Laboratory results: patent US12516038B2, “Inhibitors of antigen presentation by HLA-DR” (Janssen Pharmaceutica NV, priority 2020, dated 2026)

Key:
HLA-DRB1*0401 = HLA-DRB1*0401 (Homo sapiens (Human), UniProt P01903+P01911, A100K/A169T/DEL228-266/F76Y/I96L/K127E/L162R/M171V/N62H/P40V/Q125Y/R42H/S133A/S149N/S66Y/V115G/V209L/W38E); experiment: HLA-DR4 HTRF assay; format: binding; settings: inhibition of loading of Alexa Fluor 647-labeled Cit-CII peptide onto HLA-DR4 (CLIP cleaved)
Procedure, shortened: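 HLA-DRB1*04:01 construct (α/β fused to human Fc, CLIP pre-cleaved by HRV3C overnight at 4° C) at 3 nM was preincubated 45 min with compound and 1 nM anti-Fc-Tb donor, then 40 nM Alexa647-Cit-CII1236-1249 peptide added. After 90 min at 37° C, the 665/620 nm HTRF ratio gave % inhibition; IC50 by nonlinear regression.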

[1] = test system: HLA-DR4 restricted mouse T cell hybridoma line (DR4.CII.36.8) with HLA-DRB1*04:01-expressing Boleth cells; experiment: HLA-DR4-restricted peptide-specific T cell-based assay (hybridoma assay); settings: Mus musculus, T-cell, 6 h, inhibition of IL-2 production, CII259-273 peptide presented by Boleth cells
Procedure, shortened: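 Boleth cells (HLA-DRB1*04:01 B cell line) pre-incubated with compound 1 h at 37° C. in DMEM/1% FCS, then DR4.CII.36.8 mouse T cell hybridoma (CII259-273-specific) added for 6 h with CII259-273 peptide. Supernatant mouse IL-2 by AlphaLISA; IC50 by 4-PL fit of 8-point duplicate titrations.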

[2] = test system: human peripheral blood CD4+ helper T cells; experiment: Pan-CD4+ T cell activation (off-target assay); format: cell-based; settings: Homo sapiens, T-cell, 24 h, anti-CD3/anti-CD28 stimulation, IL-2 production by ELISA
Procedure, shortened: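 Human peripheral blood CD4+ T cells, with no APCs present, were stimulated with plate-bound anti-CD3 (1 μg/mL coating) plus soluble anti-CD28 (1 μg/mL) in the presence of compound or vehicle for 24 h. IL-2 in the supernatant was quantified by ELISA.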

Q: `Cc1c(O[C@@H](c2ccncc2)c2ccc(C(N)=O)cc2OC(C)C)ccc2c1OCCC2=O` (single isomer, unassigned) [Example 84b, (*S)-3-isopropoxy-4-(((8-methyl-4-oxochroman-7-yl)oxy)(pyridin-4-yl)methyl)benzamide] was tested. Which IC50 (HLA-DRB1*0401) did it give?
A: The IC50 was < 1 µM.

Q: And the IC50 [1]?
A: The IC50 was 6.5 µM.

Q: And the IC50 [2]?
A: Its IC50 is 1.7 µM.

Q: `Cc1c(O[C@H](c2ccncc2)c2ccc(C(N)=O)cc2OCC(C)C)ccc2c1OCCC2=O` (single isomer, unassigned) [Example 85a, (*R)-3-isobutoxy-4-(((8-methyl-4-oxochroman-7-yl)oxy)(pyridin-4-yl)methyl)benzamide] was tested. Which IC50 (HLA-DRB1*0401) did it give?
A: The IC50 was 0.81 µM.

Q: And the IC50 [1]?
A: Its IC50 is 0.24 µM.

Q: And the IC50 [2]?
A: Its IC50 is 3.7 µM.

Q: Which IC50 (HLA-DRB1*0401) does the source give for `Cc1c(O[C@@H](c2ccncc2)c2ccc(C(N)=O)cc2OCC(C)C)ccc2c1OCCC2=O` (single isomer, unassigned) [Example 85b, (*S)-3-isobutoxy-4-(((8-methyl-4-oxochroman-7-yl)oxy)(pyridin-4-yl)methyl)benzamide] here?
A: Its IC50 is 1.1 µM.

Q: And the IC50 [1]?
A: Its IC50 is 3.9 µM.

Q: What about the IC50 [2] of the same molecule?
A: Its IC50 is 0.47 µM.

Q: `Cc1c(O[C@H](c2ccncc2)c2ccc(C(N)=O)cc2OCc2ccccc2)ccc2c1OCCC2=O` (single isomer, unassigned) [Example 86a, (*R)-3-(benzyloxy)-4-(((8-methyl-4-oxochroman-7-yl)oxy)(pyridin-4-yl)methyl)benzamide] was tested. Which IC50 (HLA-DRB1*0401) did it give?
A: Its IC50 is 0.74 µM.

Q: What about the IC50 [1] of the same molecule?
A: Its IC50 is 0.072 µM.

Q: What about the IC50 [2] of the same molecule?
A: Its IC50 is 2.5 µM.

Q: `Cc1c(O[C@@H](c2ccncc2)c2ccc(C(N)=O)cc2OCc2ccccc2)ccc2c1OCCC2=O` (single isomer, unassigned) [Example 86b, (*S)-3-(benzyloxy)-4-(((8-methyl-4-oxochroman-7-yl)oxy)(pyridin-4-yl)methyl)benzamide] was tested. Which IC50 (HLA-DRB1*0401) did it give?
A: The IC50 was 1 µM.

Q: And the IC50 [1]?
A: The IC50 was 1.7 µM.

Q: And the IC50 [2]?
A: The IC50 was 1.4 µM.

Q: Which IC50 (HLA-DRB1*0401) does the source give for `Cc1c(O[C@H](c2ccc(C(N)=O)cc2)c2ccnc(CCC(=O)O)c2)ccc2c1OCCC2=O` (single isomer, unassigned) [Example 87a] here?
A: Its IC50 is 0.58 µM.

Q: And the IC50 [1]?
A: The IC50 was 0.83 µM.

Q: What about the IC50 [2] of the same molecule?
A: The IC50 was > 15 µM.

Q: Which IC50 (HLA-DRB1*0401) does the source give for `Cc1cc2c(c(C)c1O[C@@H](c1ccncc1)c1ccc(C#N)cc1)OCCC2=O` (single isomer, unassigned) [Example 88a, (*R)-4-(((6,8-dimethyl-4-oxochroman-7-yl)oxy)(pyridin-4-yl)methyl)benzonitrile] here?
A: Its IC50 is 0.4 µM.

Q: And the IC50 [1]?
A: Its IC50 is 2.2 µM.

Q: And the IC50 [2]?
A: The IC50 was > 15 µM.

Q: Which results are given for `Cc1cc2c(c(C)c1O[C@H](c1ccncc1)c1ccc(C#N)cc1)OCCC2=O` (single isomer, unassigned) [Example 88b, (*S)-4-(((6,8-dimethyl-4-oxochroman-7-yl)oxy)(pyridin-4-yl)methyl)benzonitrile]?
A: IC50 (HLA-DRB1*0401): 0.36 µM; IC50 [1]: 5.9 µM; IC50 [2]: 9.9 µM

Q: For `Cc1cc2c(c(C)c1O[C@@H](c1ccncc1)c1ccc(C(N)=O)cc1)OCCC2=O` (single isomer, unassigned) [Example 89a, (*R)-4-(((6,8-dimethyl-4-oxochroman-7-yl)oxy)(pyridin-4-yl)methyl)benzamide], which IC50 (HLA-DRB1*0401) is on record?
A: The IC50 was 0.47 µM.

Q: What about the IC50 [1] of the same molecule?
A: The IC50 was 1.8 µM.

Q: What about the IC50 [2] of the same molecule?
A: Its IC50 is 4.7 µM.

Q: For `Cc1cc2c(c(C)c1O[C@H](c1ccncc1)c1ccc(C(N)=O)cc1)OCCC2=O` (single isomer, unassigned) [Example 89b, (*S)-4-(((6,8-dimethyl-4-oxochroman-7-yl)oxy)(pyridin-4-yl)methyl)benzamide], which IC50 (HLA-DRB1*0401) is on record?
A: The IC50 was 0.47 µM.

Q: And the IC50 [1]?
A: The IC50 was 1.2 µM.

Q: And the IC50 [2]?
A: The IC50 was 4.7 µM.

Q: For `Cc1c(O[C@H](c2ccc(C(N)=O)cc2)c2cccc(C#N)c2)c(F)cc2c1OCCC2=O` (single isomer, unassigned) [Example 92a, (*R)-4-((3-cyanophenyl)((6-fluoro-8-methyl-4-oxochroman-7-yl)oxy)methyl)benzamide], which IC50 (HLA-DRB1*0401) is on record?
A: The IC50 was 0.3 µM.

Q: What about the IC50 [1] of the same molecule?
A: Its IC50 is 0.31 µM.

Q: And the IC50 [2]?
A: Its IC50 is 9.9 µM.

Q: For `Cc1cc([C@H](Oc2c(F)cc3c(c2C)OCCC3=O)c2ccc(C(N)=O)cc2)cc(C)n1` (single isomer, unassigned) [Example 94a, (*R)-4-((2,6-dimethylpyridin-4-yl)((6-fluoro-8-methyl-4-oxochroman-7-yl)oxy)methyl)benzamide], which IC50 (HLA-DRB1*0401) is on record?
A: The IC50 was 0.22 µM.

Q: And the IC50 [1]?
A: Its IC50 is 0.047 µM.

Q: What about the IC50 [2] of the same molecule?
A: The IC50 was 9.9 µM.

Q: `Cc1cc([C@@H](Oc2c(F)cc3c(c2C)OCCC3=O)c2ccc(C(N)=O)cc2)cc(C)n1` (single isomer, unassigned) [Example 94b, (*S)-4-((2,6-dimethylpyridin-4-yl)((6-fluoro-8-methyl-4-oxochroman-7-yl)oxy)methyl)benzamide] was tested. Which IC50 (HLA-DRB1*0401) did it give?
A: The IC50 was 0.23 µM.

Q: And the IC50 [1]?
A: Its IC50 is 0.89 µM.

Q: And the IC50 [2]?
A: The IC50 was 9.9 µM.

Q: With `CCc1cc(O[C@@H](c2ccncc2)c2ccc(C(N)=O)cc2)cc2c1C(=O)CCO2` (single isomer, unassigned) [Example 99a, (*R)-4-(((5-ethyl-4-oxochroman-7-yl)oxy)(pyridin-4-yl)methyl)benzamide] as the molecule, how does the IC50 (HLA-DRB1*0401) read?
A: Its IC50 is 42 µM.

Q: And the IC50 [1]?
A: Its IC50 is 0.59 µM.

Q: And the IC50 [2]?
A: Its IC50 is 3.1 µM.

Q: Which IC50 (HLA-DRB1*0401) does the source give for `NC(=O)c1ccc([C@@H](Oc2ccc3c(c2Br)OCCC3=O)c2ccncc2)cc1` (single isomer, unassigned) [Example 102a, (*R)-4-(((8-bromo-4-oxochroman-7-yl)oxy)(pyridin-4-yl)methyl)benzamide] here?
A: The IC50 was 78 µM.

Q: And the IC50 [1]?
A: Its IC50 is 0.099 µM.

Q: And the IC50 [2]?
A: The IC50 was 15 µM.

Q: What does the source list for `NC(=O)c1ccc([C@H](Oc2ccc3c(c2Br)OCCC3=O)c2ccncc2)cc1` (single isomer, unassigned) [Example 102b, (*S)-4-(((8-bromo-4-oxochroman-7-yl)oxy)(pyridin-4-yl)methyl)benzamide]?
A: IC50 (HLA-DRB1*0401): > 89 µM; IC50 [1]: 0.091 µM; IC50 [2]: > 15 µM

Q: With `Cc1cc([C@@H](Oc2ccc3c(c2C)OCCC3=O)c2ccc(C(N)=O)cc2)cc(C)n1` (single isomer, unassigned) [Example 111b, (*S)-4-((2,6-dimethylpyridin-4-yl)((8-methyl-4-oxochroman-7-yl)oxy)methyl)benzamide] as the molecule, how does the IC50 (HLA-DRB1*0401) read?
A: Its IC50 is 0.56 µM.

Q: And the IC50 [1]?
A: Its IC50 is 0.021 µM.

Q: What about the IC50 [2] of the same molecule?
A: The IC50 was 4.8 µM.

Q: For `O=C1CCOc2cc(O[C@H](c3ccccc3)c3ccncc3)ccc21` (single isomer, unassigned) [Example 114a, (*R)-7-(phenyl(pyridin-4-yl)methoxy)chroman-4-one], which IC50 (HLA-DRB1*0401) is on record?
A: Its IC50 is 1.4 µM.

Q: And the IC50 [1]?
A: Its IC50 is 5.5 µM.

Q: And the IC50 [2]?
A: The IC50 was > 15 µM.

Q: Which results are given for `O=C1CCOc2cc(O[C@@H](c3ccccc3)c3ccncc3)ccc21` (single isomer, unassigned) [Example 114b, (*S)-7-(phenyl(pyridin-4-yl)methoxy)chroman-4-one]?
A: IC50 (HLA-DRB1*0401): 1.3 µM; IC50 [1]: 3 µM; IC50 [2]: 4.7 µM

Q: `CC[C@@H]1CC(=O)c2ccc(OCc3ccnc(C)c3)cc2O1` (single isomer, unassigned) [Example 118a, (*R)-2-ethyl-7-((2-methylpyridin-4-yl)methoxy)chroman-4-one] was tested. Which IC50 (HLA-DRB1*0401) did it give?
A: Its IC50 is 0.96 µM.

Q: And the IC50 [1]?
A: The IC50 was 7.5 µM.

Q: What about the IC50 [2] of the same molecule?
A: Its IC50 is > 15 µM.

Q: With `CC[C@H]1CC(=O)c2ccc(OCc3ccnc(C)c3)cc2O1` (single isomer, unassigned) [Example 118b, (*S)-2-ethyl-7-((2-methylpyridin-4-yl)methoxy)chroman-4-one] as the molecule, how does the IC50 (HLA-DRB1*0401) read?
A: The IC50 was 0.99 µM.

Q: And the IC50 [1]?
A: Its IC50 is 12 µM.

Q: What about the IC50 [2] of the same molecule?
A: The IC50 was > 15 µM.

Q: Which results are given for `Cc1c(O[C@H]2CCc3cc(C(N)=O)ccc32)ccc2c1OCCC2=O` (single isomer, unassigned) [Example 121b, (*S)-1-((8-methyl-4-oxochroman-7-yl)oxy)-2,3-dihydro-1H-indene-5-carboxamide]?
A: IC50 (HLA-DRB1*0401): 0.83 µM; IC50 [1]: 14 µM; IC50 [2]: > 15 µM

Q: Which IC50 (HLA-DRB1*0401) does the source give for `NC(=O)c1ccc([C@@H](Oc2ccc3c(c2)OCC(c2ccccc2)C3=O)c2ccncc2)cc1` (stereo in doubt) [Example 47, 4-((1*R)-((4-Oxo-3-phenylchroman-7-yl)oxy)(pyridin-4-yl)methyl)benzamide] here?
A: Its IC50 is 6.5 µM.

Q: And the IC50 [1]?
A: Its IC50 is 0.6 µM.

Q: And the IC50 [2]?
A: Its IC50 is 9.9 µM.
